Here are results for three compounds from US20020026069A1 (priority 1998, published 2002).

Data set [1] is described as follows: Stability in aqueous solution. The format is physicochemical. The settings on record: pH 2-3.
Data set [2] is described as follows: Stability of the solid on storage or heating. Type of data set: physicochemical.
A further data set can be described thus: Hygroscopicity. Type of data set: physicochemical.
A further data set in a line: Particle size. The format is physicochemical. The settings on record: free base obtained by this process.
For data set [3] the following is noted: incubation for 6 months at 40° C.; composition produced by the Milman process (U.S. Pat. No. 5,354,885); cited from earlier work.
The nature of another data set: Solubility. Type of data set: physicochemical.
For data set [4] the following is noted: cited from earlier work.
For data set [5] the following is noted: cited from earlier work. The source holds these as a separate data set.
The mark [6] stands for this setting: free base obtained by this process.
Setting [7] is: synthesized by the methods of GB 1,364,505 / U.S. Pat. No. 3,803,120.

Each structure is given as a SMILES string.

With `CCOC(=O)[C@@H](N)Cc1ccc(O)c(O)c1` [L-DOPA ethyl ester], the “stability in the solution” value in data set [1] was “stable”. Besides, the stability result in data set [2] (setting [6]) is on record as “stable”. Moreover, the sensitivity to heat entry in data set [2] (produces cyclic levodopa and levodopa-levodopa ethyl ester) is given as “very sensitive to heat”. Also, the stability result in data set [2] (setting [7]) was “not stable”. Besides, the hygroscopicity entry in the data set “Hygroscopicity” (setting [6]) is recorded as “non-hygroscopic”. In addition, in the data set “Particle size”, the average particle size result is listed as “less than 60 μ” and the particle size range is 18-180 μ. The “L-DOPA ethyl ester remaining after incubation” value in data set [3] is given as “at least 97 % by weight”. In the data set “Solubility”, the solubility in water result is recorded as “soluble to a certain extent”.
Take `CCOC(=O)[C@@H](N)Cc1ccc(O)c(O)c1.Cl` [L-DOPA ethyl ester hydrochloride salt, L-DOPA ethyl ester hydrochloride, reference compound]: in data set [2] (setting [7]), the stability entry is given as “not stable”. Also, in the data set “Hygroscopicity” (setting [7]), the hygroscopicity result is reported as “hygroscopic”.
In the case of `N[C@@H](Cc1ccc(O)c(O)c1)C(=O)O` [L-DOPA], the solubility entry in data set [4] is “very poor solubility”. For the same compound, the half-life in vivo entry in data set [5] is “short half-life”.
